Results taken from US11512053B2, “Arginine methyltransferase inhibitors and uses thereof” (priority 2013, dated 2022).
Where a name gives a salt, the structure may show the parent alone. Read-outs that look alike come from different tables or passages of the source.

Legend:
[1] = biological target: full-length human PRMT6 (Flag- and His-tagged) (Homo sapiens, UniProt Q96LA8); experiment: PRMT6 Biochemical Assay (3H-SAM Flashplate, peptide substrate); conditions: read-out: Biochemical IC50 PRMT6
Summary of the method: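 Radiometric methyltransferase readout: tritium transfer onto a biotin-tagged histone H4 36-50 peptide bearing monomethyl K44 (75 nM), captured on streptavidin Flashplates after stopping with 400 uM unlabeled SAM. Enzyme is baculovirus-expressed Flag-PRMT6-His at 1 nM, given 30 min with compound at room temperature before adding 200 nM 3H-SAM and 250 nM cold SAM (pH 7.6 Bicine, 2% DMSO). Percent inhibition relative to max/min (1 mM SAH) controls, curve-fit to IC50.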

[2] = test system: mono-methyl arginine in RKO cells; experiment: RKO Methylation Assay, In Cell Western (ICW) for detection of mono-methyl arginine and DNA content; assay type: cell-based; conditions: RKO cells; for EC30: read-out: In Cell Western EC30
Summary of the method: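 RKO cells were treated with compound for 72 hours at 37 °C, methanol-fixed and stained overnight at 4 °C with anti-mono-methyl arginine (1:200), with DRAQ5 for DNA. Odyssey 800/700 nm intensity ratio was normalized to DMSO and 20 μM reference-compound controls. EC30 from triplicate nine-point curves.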

[3] = single experiment or average of multiple experiments
[4] = Homo sapiens, RKO, 72 h, 72 hours compound incubation, mono-methyl arginine signal normalised to DNA content (DRAQ5), percent activation vs 20 μM reference compound
[5] = Homo sapiens, RKO, 72 h, 72 hours incubation, mono-methyl arginine signal normalised to DNA content, single experiment or average of multiple experiments

Sequence of full-length human PRMT6 (Flag- and His-tagged) (Q96LA8 with tags, fused parts or gaps): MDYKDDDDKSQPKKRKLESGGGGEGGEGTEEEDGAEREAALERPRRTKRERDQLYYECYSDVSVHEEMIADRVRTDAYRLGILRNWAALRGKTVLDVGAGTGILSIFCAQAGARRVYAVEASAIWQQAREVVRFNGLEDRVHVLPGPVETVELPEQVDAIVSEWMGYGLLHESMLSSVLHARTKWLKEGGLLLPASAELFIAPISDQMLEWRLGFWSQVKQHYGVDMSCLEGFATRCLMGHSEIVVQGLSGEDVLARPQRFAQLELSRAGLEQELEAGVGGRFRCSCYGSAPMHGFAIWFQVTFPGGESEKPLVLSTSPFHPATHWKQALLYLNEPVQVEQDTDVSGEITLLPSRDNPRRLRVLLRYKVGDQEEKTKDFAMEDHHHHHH

| IC50 [1] | IC50 [1, 3] | SMILES | EC30 [2, 4] | EC30 [2, 5] | In Cell Western EC30 ([2]; 72 hours compound incubation, mono-methyl arginine signal normalised to DNA content (DRAQ5), percent activation vs 20 μM reference compound) | EC30 ([2]; 72 hours incubation, mono-methyl arginine signal normalised to DNA content, single experiment or average of multiple experiments) |
| --- | --- | --- | --- | --- | --- | --- |
| < 0.1 µM | 0.0341 µM | CNCCN(C)Cc1c[nH]nc1[C@H]1CC[C@@H](N(CCC(C)C)C(=O)CCOC)CC1 [Compound 235] | < 3 µM | 0.813 µM |  |  |
| < 0.1 µM | 0.0328 µM | CNCCN(C)Cc1c[nH]nc1[C@H]1CC[C@H](N(CCCOC)C(=O)CC(C)C)CC1 [Compound 241] | < 3 µM | 1.18 µM |  |  |
| < 0.1 µM | 0.0331 µM | CNCCN(C)Cc1c[nH]nc1[C@H]1CC[C@@H](C(=O)N(C)CCOc2ccccc2)CC1 [Compound 259] | < 3 µM | 0.408 µM |  |  |
| < 0.1 µM | 0.018 µM | CNCCN(C)Cc1c[nH]nc1[C@H]1CC[C@H](C(=O)N(C)CCOc2ccccc2)CC1 [Compound 258] | < 3 µM | 0.303 µM |  |  |
| < 0.1 µM | 0.0417 µM | CNCCN(C)Cc1c[nH]nc1[C@H]1CC[C@@H](N(CCCOC)C(=O)CC(C)C)CC1 [Compound 242] |  |  |  |  |
| < 0.1 µM | 0.0415 µM | CNCCN(C)Cc1c[nH]nc1[C@H]1CC[C@H](C(=O)N(C)CC(C)C)CC1 [Compound 226] | < 3 µM | 1.53 µM |  |  |
| < 0.1 µM | 0.0622 µM | CNCCN(C)Cc1cnn(C)c1[C@H]1CC[C@@]2(CC1)CC(C)(C)CO2 [Compound 245, Methyl ([2-[methyl([1-methyl-5-[(5S,8S)-3,3-dimethyl-1-oxaspiro[4.5]decan-8-yl]-1H-pyrazol-4-yl]methyl)amino]ethyl])amine trifluoroacetic acid salt] |  |  |  |  |
| 3.01 to 10 µM | ≥ 10 µM | CNCCN(C)Cc1c[nH]nc1C1C[C@H](C(=O)N(C)CC(C)C)C(C)(C)[C@H](C(=O)N(C)CC(C)C)C1 (some centres unmarked) [Compound 267] |  |  |  |  |
| < 0.1 µM | 0.0231 µM | CNCCN(C)Cc1c[nH]nc1[C@H]1CC[C@H](N(CCOC)C(=O)CCOc2ccccc2)CC1 [Compound 230] | < 3 µM | 1.32 µM |  |  |
| < 0.1 µM | 0.0134 µM | CNCCN(C)Cc1c[nH]nc1[C@H]1CC[C@]2(CCOC2(C)C)CC1 [Compound 253] | < 3 µM | 0.0566 µM |  |  |
| < 0.1 µM | 0.0638 µM | CNCCN(C)Cc1c[nH]nc1C1CCC(C)(C)[C@@H](C(=O)NCCC(C)C)C1 (stereo partly drawn) [Compound 263, (1S)-2,2-dimethyl-5-[4-({methyl[2-(methylamino)ethyl]amino}methyl)-1H-pyrazol-3-yl]-N-(3-methylbutyl)cyclohexane-1-carboxamide] |  |  |  |  |
| 0.101 to 1 µM | 0.156 µM | CNCCN(C)Cc1c[nH]nc1C1CCC(=O)N(CCCOC)C1 (centres unmarked) [Compound 190] | 3.01 to 12 µM | 6.62 µM |  |  |
| < 0.1 µM | 0.0548 µM | CNCCN(C)Cc1c[nH]nc1[C@H]1CC[C@@H](N(CCCOC)C(=O)CCC(C)C)CC1 [Compound 244] | < 3 µM | 2.53 µM |  |  |
| < 0.1 µM | 0.0107 µM | CNCCN(C)Cc1c[nH]nc1[C@H]1CC[C@]2(CCN(Cc3cc(F)cc(F)c3)C2=O)CC1 [Compound 197] | < 3 µM | 0.406 µM |  |  |
| < 0.1 µM | 0.0319 µM | CNCCN(C)Cc1c[nH]nc1[C@H]1CC[C@H](N(CCOc2ccccc2)C(=O)CCOC)CC1 [Compound 219] | < 3 µM | 0.294 µM |  |  |
| < 0.1 µM | 0.0143 µM | CCN(C(=O)CCC(C)C)[C@H]1CC[C@H](c2n[nH]cc2CN(C)CCNC)CC1 [Compound 250] |  |  |  |  |
| < 0.1 µM | 0.0291 µM | CNCCN(C)Cc1c[nH]nc1[C@H]1CC[C@H](N(CCOc2ccccc2)C(=O)CCCOC)CC1 [Compound 229] | < 3 µM | 0.689 µM |  |  |
| < 0.1 µM | 0.0624 µM | CNCCN(C)Cc1c[nH]nc1[C@H]1CC[C@H](N(CCC(C)C)C(=O)CCOC)CC1 [Compound 236] | < 3 µM | 0.813 µM |  |  |
| < 0.1 µM | 0.0205 µM | CNCCN(C)Cc1c[nH]nc1C1CCC(F)(F)CC1 [Compound 216] | < 3 µM | 0.111 µM |  |  |
| < 0.1 µM | 0.0368 µM | CNCCN(C)Cc1n[nH]cc1[C@H]1CC[C@H](C(=O)NCCC(C)C)CC1 [Compound 203] | < 3 µM | 0.327 µM |  |  |
| 1.01 to 3 µM | 1.47 µM | CCOC[C@@H]1C[C@H](COCC)C[C@H](c2n[nH]cc2CN(C)CCNC)C1 [Compound 189] | 3.01 to 12 µM | 6.62 µM |  |  |
| 0.101 to 1 µM | 0.133 µM | CNCCN(C)Cc1c[nH]nc1C1CCC(C)(C)[C@H](C(=O)NCCOC)C1 (some centres unmarked) [Compound 264] |  |  |  |  |

The remaining lines, values behind:

| SMILES | IC50 [1] | IC50 [1, 3] | EC30 [2, 4] | EC30 [2, 5] | In Cell Western EC30 ([2]; 72 hours compound incubation, mono-methyl arginine signal normalised to DNA content (DRAQ5), percent activation vs 20 μM reference compound) | EC30 ([2]; 72 hours incubation, mono-methyl arginine signal normalised to DNA content, single experiment or average of multiple experiments) |
| --- | --- | --- | --- | --- | --- | --- |
| CN(CCN)Cc1c[nH]nc1[C@H]1CC[C@]2(CC1)CC(C)(C)CO2 [Compound 208] | < 0.1 µM | 0.0453 µM | < 3 µM | 0.0672 µM |  |  |
| CNCCN(C)Cc1c[nH]nc1[C@H]1CC[C@H](C(=O)N(C)CCC(C)C)CC1 [Compound 209] | < 0.1 µM | 0.0521 µM | < 3 µM | 0.916 µM |  |  |
| CCC(=O)N(CCOc1ccccc1)[C@H]1CC[C@H](c2n[nH]cc2CN(C)CCNC)CC1 [Compound 221] | < 0.1 µM | 0.0192 µM | < 3 µM | 0.49 µM |  |  |
| CCOCC1CC(c2n[nH]cc2CN(C)CCNC)CCC1(C)C (centres unmarked) [Compound 202] | < 0.1 µM | 0.0664 µM | < 3 µM | 0.327 µM |  |  |
| CNCCN(C)Cc1c[nH]nc1[C@H]1CC[C@@H](N(CCCOC)C(=O)CCOc2ccccc2)CC1 [Compound 246] | < 0.1 µM | 0.0283 µM | < 3 µM | 0.0799 µM |  |  |
| CNCCN(C)Cc1c[nH]nc1C1CCC(C)(C)[C@@H](C(=O)NCC(C)C)C1 (some centres unmarked) [Compound 266] | < 0.1 µM | 0.079 µM |  |  |  |  |
| CNCCN(C)Cc1c[nH]nc1[C@H]1CC[C@@H](N(CCOc2ccccc2)C(=O)CCCOC)CC1 [Compound 228] | < 0.1 µM | 0.0185 µM |  |  |  |  |
| CNCCN(C)Cc1c[nH]nc1C1CCC2(CCCC2)OC1 (centres unmarked) [Compound 199] | < 0.1 µM | 0.0365 µM | < 3 µM | 0.802 µM |  |  |
| CNCCN(C)Cc1c[nH]nc1[C@H]1CC[C@H](N(CC(C)C)C(=O)CCCOC)CC1 [Compound 249] | < 0.1 µM | 0.0828 µM |  |  | A (“A” indicates an EC30 ≤ 3.00 μM) | 0.6585 µM |
| CNCCN(C)Cc1c[nH]nc1[C@H]1CC[C@H](N(CC2CCOCC2)C(=O)CC(C)C)CC1 [Compound 192] | 0.101 to 1 µM | 0.173 µM | 3.01 to 12 µM | 9.25 µM |  |  |
| CN(CCN)Cc1c[nH]nc1[C@H]1CC[C@@]2(CC1)CC(C)(C)CO2 [Compound 207] | < 0.1 µM |  | < 3 µM | 0.0121 µM |  |  |
| CNCCN(C)Cc1c[nH]nc1[C@H]1CC[C@@H](C(=O)N(C)CC(C)C)CC1 [Compound 215] | < 0.1 µM | 0.0306 µM | < 3 µM | 0.164 µM |  |  |
| CCN(C(=O)CC1CCOCC1)[C@H]1CC[C@@H](c2n[nH]cc2CN(C)CCNC)CC1 [Compound 196] | 0.101 to 1 µM | 0.111 µM | 3.01 to 12 µM | 4.89 µM |  |  |
| CNCCN(C)Cc1c[nH]nc1[C@H]1CC[C@@]2(CCC(C)(C)O2)CC1 [Compound 260] | < 0.1 µM | 0.0831 µM | < 3 µM | 0.207 µM |  |  |
| CNCCN(C)Cc1c[nH]nc1C1CCC(C)(C)[C@H](C(=O)NCCCOC)C1 (some centres unmarked) [Compound 265] | 0.101 to 1 µM | 0.174 µM |  |  |  |  |
| CNCCN(C)Cc1c[nH]nc1C1CCC(=O)N(Cc2ccc(C(F)(F)F)cc2)C1 (centres unmarked) [Compound 191] | 0.101 to 1 µM | 0.107 µM | 3.01 to 12 µM | 9.25 µM |  |  |
| CNCCN(C)Cc1c[nH]nc1[C@H]1CC[C@@H](N(CCOC)C(=O)CCC(C)C)CC1 [Compound 261] | < 0.1 µM | 0.0317 µM | < 3 µM | 0.289 µM |  |  |
| CNCCN(C)Cc1c[nH]nc1[C@H]1CC[C@@H](C(=O)N(CCCOC)CCC(C)C)CC1 [Compound 214] | < 0.1 µM | 0.0505 µM | < 3 µM | 0.0958 µM |  |  |
| CNCCN(C)Cc1c[nH]nc1[C@H]1CC[C@@H](C(=O)N(C)CCC(C)C)CC1 [Compound 210] | < 0.1 µM | 0.0317 µM | < 3 µM | 0.28 µM |  |  |
| CCC(=O)N(CCOc1ccccc1)[C@H]1CC[C@@H](c2n[nH]cc2CN(C)CCNC)CC1 [Compound 220] | < 0.1 µM | 0.0184 µM | < 3 µM | 0.219 µM |  |  |
| CNCCN(C)Cc1c[nH]nc1[C@H]1CC[C@H](N(CCCOC)C(=O)CCC(C)C)CC1 [Compound 243] | < 0.1 µM | 0.0151 µM |  |  |  |  |
| CCOC[C@H]1CC(c2n[nH]cc2CN(C)CCNC)C[C@H](COCC)C1 (some centres unmarked) [Compound 188] | 1.01 to 3 µM | 1.23 µM |  |  |  |  |
| CNCCN(C)Cc1c[nH]nc1[C@H]1CC[C@@H](N(CCOc2ccccc2)C(=O)CCOC)CC1 [Compound 218] | < 0.1 µM | 0.0303 µM |  |  |  |  |
